Laboratory results as given in patent US7906510B2, “Amide derivative and pharmaceutical composition containing the same” (Dainippon Sumito Pharma Co., Ltd., priority 2008, dated 2011).
Where a name gives a salt, the structure may show the parent alone. Read-outs that look alike come from different tables or passages of the source.

Tests used:
[1] = test system: Male Slc-Hartley guinea pigs; assay: Electrocardiographic assay for guinea pig; settings: dose extending 5% of QTc; i.v. infusion for 15 minutes, anesthetized guinea pigs, ECG lead II
Description: (§1) Male Slc-Hartley guinea pigs were anesthetized to determine electrocardiogram (lead II) under artificial respiration. A drug solution was continuously and intravenously infused via cannula indwelled in cervical veins at a flow rate: 0.2 ml/kg/min for 15 minutes.

5-HT4 receptor = target: T1, 5-HT4 receptor (Cavia porcellus, UniProt O70528); assay: Serotonin 4 (5-HT4) receptor binding assay; parameters: species or system guinea pig; settings: inhibition of specific binding of 0.1 nM [3H]-GR113808; guinea pig striatum membrane preparations; 37° C., 30 minutes; read-out: IC50
T1 construct: the mixture was suspended to give receptor membrane preparations; from tissue; host or cells: guinea pig (Slc-Hartley) brain striatum membranes
Description: 5-HT4 receptor binding assay and preparations of receptor membrane preparations were carried out according to a method of Grossman et al. [see British J. Pharmacol., (1993) 109, 618].
Slc-Hartley guinea pigs (body weight 300 to 400 g) were decapitated to remove brain rapidly, and striatum was isolated. To the obtained tissues were added fifteenfold of Hepes buffer (50 mM, pH7.4, 4° C.), and the mixture was homogenized by Teflon® homogenizer and centrifuged at 48,000×g (4° C.) for 15 minutes. To the resulting precipitate was added Hepes buffer (1 ml) to 30 mg by wet weight of tissues, and the mixture was suspended to give receptor membrane preparations.
0.1 nM [^3H]-GR113808 {chemical name: [1-[2-(methylsulfonylamino)ethyl]-4-piperidinyl]methyl 1-methylindole-3-carboxylate}, receptor membrane preparations, and Hepes buffer (50 mM, pH7.4, 4° C., 1 ml) containing test compounds or 30 μM serotonin were placed in an assay tube, and incubated at 37° C. for 30 minutes. On quenching the reaction, the mixture was rapidly filtered on whatman GF/B filter, which was presoaked in 0.1% polyethyleneimine for 1 hour, by using Brandel cell Harvester, and washed with ice-cooled 50 mM Tris-HCl (pH7.7, 4 ml) three times. To the filter after filtration was added ACS II scintillator, and then a radioactivity was determined by a liquid scintillation counter.
50% inhibition concentrations (IC50) were determined from inhibition rates of test compounds to specific bindings which were obtained by subtracting nonspecific bindings from total binding amounts of [^3H]-GR113808.

Male Slc-ddy mice = assay: Mouse defecation assay; assay type: in vivo; parameters: key: −: No Effect; +: Moderately Improved (p<0.05); ++: Significantly Improved (p<0.01); settings: 3 mg/kg orally; stool weight 30, 60 and 120 minutes after administration; Dunnett assay vs control
Description: Male Slc-ddy mice (body weight 25 to 30 g) were used and allowed to ingest food and water ad libitum until commencement of experiments.
A group of 25 mice was divided into 5 groups, which 5 mice each per group were respectively transferred to fasting cages to adjust to new environments for about 1 hour. Then, each mouse was orally administered 3 mg/kg suspension of a test compound in 0.5% tragacanth solution to measure each stool weight of each group 30, 60, and 120 minutes after oral administration.
Efficacies were evaluated by Dunnett assay between test compounds and control.

[2] = test system: Male Slc-Hartley guinea pigs; settings: guinea pig, in vivo, iv
Description: as §1

T1 sequence (O70528 whole entry): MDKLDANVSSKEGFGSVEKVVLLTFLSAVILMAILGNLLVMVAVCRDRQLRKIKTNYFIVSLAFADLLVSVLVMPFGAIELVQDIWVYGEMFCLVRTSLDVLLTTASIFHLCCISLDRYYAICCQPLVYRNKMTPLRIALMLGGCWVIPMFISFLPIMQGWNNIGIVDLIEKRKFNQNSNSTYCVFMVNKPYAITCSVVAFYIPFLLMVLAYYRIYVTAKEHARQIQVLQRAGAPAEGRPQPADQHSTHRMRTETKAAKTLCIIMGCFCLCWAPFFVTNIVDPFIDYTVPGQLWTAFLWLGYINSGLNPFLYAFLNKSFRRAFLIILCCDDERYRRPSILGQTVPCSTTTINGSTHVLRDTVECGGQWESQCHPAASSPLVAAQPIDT

melting point	IC50 (5-HT4 receptor) [nM]	ED5% (mg/kg,i.v.) [2] [mg/kg]	Compound	ED5% (mg/kg,i.v.) [1] [mg/kg]	Effect (Male Slc-ddy mice)
197 °C (dec.)			CCOc1cc(N)c(Cl)cc1C(=O)NCC1CN(CC2CCN(C#N)CC2)CCO1 (stereo not drawn) [Example 211, 4-amino-5-chloro-N-[{4-[(1-cyano-4-piperidinyl)methyl]-2-morpholinyl}-methyl]-2-ethoxybenzamide]		
127 to 129 °C			CCOc1cc(N)c(Cl)cc1C(=O)NC[C@H]1CN(CC2CCN(C(=O)N(C)OC)CC2)CCO1 [Example 205, (S)-4-amino-5-chloro-2-ethoxy-N-[{4-[(1-(N-methoxy-N-methylcarbamoyl)-4-piperidinyl)methyl]-2-morpholinyl}methyl]benzamide]		
157 to 158 °C	9.04		CCOc1cc(N)c(Cl)cc1C(=O)NC[C@H]1CN(CC2CCN(C(=O)N(C)C)CC2)CCO1 [Example 72]	>30	++
	17.2		COc1cc(N)c(Cl)cc1C(=O)NC[C@H]1CN(CC2CCN(C(=O)CNC(=O)c3ccccc3)CC2)CCO1 [Example 222]	>30	++
	21.2		COc1cc(N)c(Cl)cc1C(=O)NC[C@H]1CN(CC2CCN(C(=O)C3CCOC3)CC2)CCO1 (stereo partly drawn) [Example 226]	>30	++
175 °C	9.36		CCOc1cc(N)c(Cl)cc1C(=O)NCC1CN(CC2CCN(C(=O)OC)CC2)CCO1 (stereo not drawn) [Example 93]		
	0.87		CCc1ccc(C(=O)N2CCC(CN3CCO[C@@H](CNC(=O)c4cc(Cl)c(N)cc4OC)C3)CC2)cc1 [Example 122]	>30	+
	6.93		COc1cc(N)c(Cl)cc1C(=O)NC[C@H]1CN(CC2CCN(C(=O)c3ccccc3OC(C)=O)CC2)CCO1 [Example 166]	>30	++
	0.68		CCOc1cc(N)c(Cl)cc1C(=O)NC[C@H]1CN(CC2CCN(C(=O)c3ccc(Cl)cc3)CC2)CCO1 [Example 116]	>30	+
201 to 207 °C			CCOc1cc(N)c(Cl)cc1C(=O)NCC1CN(CC2CCN(C(N)=O)CC2)CCO1 (stereo not drawn) [Example 43, 4-amino-N-[{4-((1-carbamoyl-4-piperidinyl)methyl)-2-morpholinyl}methyl]-5-chloro-2-ethoxybenzamide]		
	0.23		CCOc1cc(N)c(Cl)cc1C(=O)NC[C@H]1CN(CC2CCN(C(=O)c3ccc(C)cc3)CC2)CCO1 [Example 121]	>30	++
		>30	CCOc1cc(N)c(Cl)cc1C(=O)NC[C@H]1CN(CC2CCN(C(=O)CO)CC2)CCO1 [Example 197]		++
166 to 168 °C	4.79		CCOc1cc(N)c(Cl)cc1C(=O)NC[C@H]1CN(CC2CCN(C(=O)N3CCC3)CC2)CCO1 [Example 208, (S)-4-amino-N-[{4-[(1-(1-azetidinecarbonyl)-4-piperidinyl)methyl]-2-morpholinyl}methyl]-5-chloro-2-ethoxybenzamide]		
	3.51		COc1ccc(C(=O)N2CCC(CN3CCO[C@@H](CNC(=O)c4cc(Cl)c(N)cc4OC)C3)CC2)cc1 [Example 125]	>30	++
179 to 180 °C			COc1cc(N)c(Cl)cc1C(=O)NCC1CN(CC2CCN(C(=O)N(C)C)CC2)CCO1 (stereo not drawn) [Example 67, 4-amino-5-chloro-N-[{4-[(1-dimethylcarbamoyl-4-piperidinyl)methyl]-2-morpholinyl}methyl]-2-methoxybenzamide]		
	20.2		COc1cc(N)c(Cl)cc1C(=O)NC[C@H]1CN(CC2CCN(C(=O)[C@H](C)OC)CC2)CCO1 [Example 225]	>30	++
	25.9		COc1cc(N)c(Cl)cc1C(=O)NC[C@H]1CN(CC2CCN(C(=O)CO)CC2)CCO1 [Example 198, 4-amino-5-chloro-N-[{4-[(1-hydroxyacetyl-4-piperidinyl)methyl]-2-morpholinyl}methyl]-2-methoxybenzamide hydrochloride]	>30	++
164 to 167 °C (dec.)			COc1cc(N)c(Cl)cc1C(=O)NC[C@H]1CN(CC2CCN(C(=O)CO)CC2)CCO1 (as salt: hydrochloride) [Example 198, 4-amino-5-chloro-N-[{4-[(1-hydroxyacetyl-4-piperidinyl)methyl]-2-morpholinyl}methyl]-2-methoxybenzamide hydrochloride]		
215 to 216 °C (dec.)			COc1cc(N)c(Cl)cc1C(=O)NC[C@H]1CN(CC2CCN(C(=O)CO)CC2)CCO1 (as salt: hydrobromid) (hydrate or solvate) [Example 220, (S)-4-amino-5-chloro-N-[{4-[(1-hydroxyacetyl-4-piperidinyl)methyl]-2-morpholinyl}methyl]-2-methoxybenzamide hydrobromide 2 hydrate]		

Compound	melting point	IC50 (5-HT4 receptor) [nM]	ED5% (mg/kg,i.v.) [2] [mg/kg]	ED5% (mg/kg,i.v.) [1] [mg/kg]	Effect (Male Slc-ddy mice)
CCOc1cc(N)c(Br)cc1C(=O)NCC1CN(CC2CCN(C(=O)OC(C)(C)C)CC2)CCO1 (stereo not drawn) (as salt: fumarate) [Example 11, 4-amino-5-bromo-N-[{4-[(1-(tert-butoxycarbonyl)-4-piperidinyl)methyl]-2-morpholinyl}methyl]-2-ethoxybenzamide 1.5 fumarate]	171 to 172 °C				
CCOc1cc(N)c(Cl)cc1C(=O)NCC1CN(CC2CCN(C(=O)OC(C)(C)C)CC2)CCO1 (stereo not drawn) (as salt: fumarate) [Example 4, 4-amino-N-[{4-[(1-(tert-butoxycarbonyl)-4-piperidinyl)methyl]-2-morpholinyl}-methyl]-5-chloro-2-ethoxybenzamide 1.5 fumarate]	167 to 169 °C				
